Key:
human A1 AR = target: T1, human A1 AR (Homo sapiens, UniProt P30542); conditions: at 10 μM; model compounds; values from Tosh et al. and Melman et al.; cited from earlier work
T1 construct: expressed in transfected cells
T1 sequence (P30542 1-326): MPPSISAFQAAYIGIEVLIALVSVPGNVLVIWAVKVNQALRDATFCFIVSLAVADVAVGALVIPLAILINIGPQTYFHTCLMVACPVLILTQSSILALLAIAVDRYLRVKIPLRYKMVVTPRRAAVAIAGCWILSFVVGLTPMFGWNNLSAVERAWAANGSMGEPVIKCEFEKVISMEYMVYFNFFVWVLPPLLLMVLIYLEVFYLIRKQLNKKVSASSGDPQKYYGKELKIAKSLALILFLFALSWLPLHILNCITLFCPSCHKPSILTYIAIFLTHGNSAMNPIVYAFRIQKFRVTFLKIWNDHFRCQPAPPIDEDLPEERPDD

human A3AR [1] = target: T2, human A3AR (Homo sapiens, UniProt P0DMS8); assay: Radioligand binding at human A3 AR ([125I]I-AB-MECA, membranes of CHO cells); conditions: for Ki: [125I]38, CHO cells, read-out: Affinity (Ki, nM), A3
T2 construct: expressed in transfected cells
T2 sequence (P0DMS8 1-318): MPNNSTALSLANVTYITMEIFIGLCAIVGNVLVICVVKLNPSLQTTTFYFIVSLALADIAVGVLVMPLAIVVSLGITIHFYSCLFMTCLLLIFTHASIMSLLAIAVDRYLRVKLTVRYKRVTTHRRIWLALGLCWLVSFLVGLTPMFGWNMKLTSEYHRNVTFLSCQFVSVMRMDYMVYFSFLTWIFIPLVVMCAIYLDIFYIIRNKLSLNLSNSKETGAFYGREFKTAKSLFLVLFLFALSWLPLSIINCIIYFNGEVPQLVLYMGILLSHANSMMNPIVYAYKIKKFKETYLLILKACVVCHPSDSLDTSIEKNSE
Summary of the method: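 Membranes came from CHO cells stably expressing hA3R, pretreated with adenosine deaminase (3 units/mL). Competition with agonist radioligand was run in 50 mM Tris-HCl pH 7.5, 10 mM MgCl2 for 60 min at 25 °C, followed by GF/B filtration and γ-counting. Ki values derived.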

human A3AR [2] = target: T2, human A3AR; conditions: concentration 10 μM; values from Tosh et al.; cited from earlier work

SMILES | Ki (human A3AR [1]) [nM] | other results
C#CCCCCC#Cc1nc(NCc2cccc(Cl)c2)c2ncn(C3C(O)C(O)C4(C(=O)NC)CC34)c2n1 (stereo not drawn) [Compound 9, (1′S, 2′R, 3′S, 4′S, 5′S)-4′-[6-(3-Chlorobenzylamino)-2-(1,7-octadiynyl)-9H-purin-9-yl]-2′,3′-dihydroxybicyclo[3.1.0]hexane-1′-carboxylic acid N-methylamide] | 29.4 ± 9.8 | % inhibition, A1 (human A1 AR): (31%
CNC(=O)[C@@]12C[C@@H]1[C@@H](n1cnc3c(NCc4cccc(Cl)c4)nc(C#CCCCCc4cn(-c5ccc(F)c([N+](=O)[O-])c5)nn4)nc31)[C@H](O)[C@@H]2O [Compound 11] | 10.6 ± 3.8 | –
CNC(=O)[C@@]12C[C@@H]1[C@@H](n1cnc3c(NCc4cccc(Cl)c4)nc(C#CCCCCc4cn(CCCCN)nn4)nc31)[C@H](O)[C@@H]2O [Compound 16, (1S,2R,3S,4R,5S)-6-(3-Chlorobenzylamino)-(2-(6-(1-(4-aminobutyl)-1H-1,2,3-triazol-4-yl)hex-1-ynyl)-9H-purin-9-yl)-2′,3′-dihydroxybicyclo[3.1.0]hexane-1′-carboxylic acid N-methylamide] | 47 ± 1.8 | –
CNC(=O)[C@@]12C[C@@H]1[C@@H](n1cnc3c(NCc4cccc(Cl)c4)nc(C#CCCCCc4cn(C56CC7CC(CC(C7)C5)C6)nn4)nc31)[C@H](O)[C@@H]2O [Compound 18, (1S,2R,3S,4R,5S)-6-(3-Chlorobenzylamino)-(2-(6-(1-(adamantyl)-1H-1,2,3-triazol-4-yl)hex-1-ynyl)-9H-purin-9-yl)-2′,3′-dihydroxybicyclo[3.1.0]hexane-1′-carboxylic acid N-methylamide] | 6.5 ± 0.5 | selectivity for the hA3AR in comparison to the hA1 and hA2A ARs (human A3AR [1]; radioligand binding inhibition curves, figure legends): highly selective
CNC(=O)[C@@]12C[C@@H]1[C@@H](n1cnc3c(NCc4cccc(Cl)c4)nc(-c4nnn(-c5ccc(N=C=S)cc5)c4CCCCc4cn(-c5ccc(N=C=S)cc5)nn4)nc31)[C@H](O)[C@@H]2O [Compound 25, (1S,2R,3S,4R,5S)-6-(3-Chlorobenzylamino)-(2-(1,6-bis(4-isothiocyante-phenyl)-1H-bis(1,2,3-triazol-4-yl)hex-1-ynyl)-9H-purin-9-yl)-2′,3′-dihydroxybicyclo[3.1.0]hexane-1′-carboxylic acid N-methylamide] | 8.8 ± 1.3 | –
CNC(=O)[C@@]12C[C@@H]1[C@@H](n1cnc3c(NCc4cccc(Cl)c4)nc(C#CCCCCc4cn(-c5ccc(N=C=S)cc5)nn4)nc31)[C@H](O)[C@@H]2O [Compound 26, (1S,2R,3S,4R,5S)-6-(3-Chlorobenzylamino)-(2-(6-(1-(4-isothiocyante-phenyl)-1H-1,2,3-triazol-4-yl)hex-1-ynyl)-9H-purin-9-yl)-2′,3′-dihydroxybicyclo[3.1.0]hexane-1′-carboxylic acid N-methylamide] | 37.5 ± 16 | –

Continued by falling Ki (human A3AR [1]), values first:

Ki (human A3AR [1]) [nM] | SMILES | other results
416 ± 45 | CNC(=O)[C@@]12C[C@@H]1[C@@H](n1cnc3c(NCc4cccc(Cl)c4)nc(C#CCCCCc4cn(CCCCCCNC(=O)c5ccc(-c6c7ccc(=N)c(S(=O)(=O)O)c-7oc7c(S(=O)(=O)O)c(N)ccc67)c(C(=O)O)c5)nn4)nc31)[C@H](O)[C@@H]2O [Compound 23] | –
285 ± 54 | CNC(=O)[C@@]12C[C@@H]1[C@@H](n1cnc3c(NCc4cccc(Cl)c4)nc(C#CCCCCc4cn(CCCCCCNC(=O)CCCC[C@@H]5SC[C@@H]6NC(=O)N[C@@H]65)nn4)nc31)[C@H](O)[C@@H]2O [Compound 20, (1S,2R,3S,4R,5S)-6-(3-Chlorobenzylamino)-(2-(6-(1-(6-(5-(3aS,4S,6aR)-oxohexahydro-1H-thieno[3,4-d]imidazol-4-yl)pentanamido)hexyl-1H-1,2,3-triazol-4-yl)hex-1-ynyl)-9H-purin-9-yl)-2′,3′-dihydroxybicyclo[3.1.0]hexane-1′-carboxylic acid N-methylamide] | –
235 ± 43 | CNC(=O)[C@@]12C[C@@H]1[C@@H](n1cnc3c(NCc4cccc(Cl)c4)nc(C#CCCCCc4cn(CCCCCCC(=O)NCCCCCCNC(=O)CCCC[C@@H]5SC[C@@H]6NC(=O)N[C@@H]65)nn4)nc31)[C@H](O)[C@@H]2O [Compound 21] | –
180 ± 23 | CNC(=O)[C@@]12C[C@@H]1[C@@H](n1cnc3c(NCc4cccc(Cl)c4)nc(C#CCCCCc4cn(-c5ccc(C(=O)O)cc5)nn4)nc31)[C@H](O)[C@@H]2O [Compound 13, (1S,2R,3S,4R,5S)-4′-(6-(3-Chlorobenzylamino)-2-(6-(1-(4-carboxyl-phenyl)-1H-1,2,3-triazol-4-yl)hex-1-ynyl)-9H-purin-9-yl)-2′,3′-dihydroxybicyclo[3.1.0]hexane-1′-carboxylic acid N-methylamide] | –
102 ± 25 | CNC(=O)[C@@]12C[C@@H]1[C@@H](n1cnc3c(NCc4cccc(Cl)c4)nc(C#CCCCCc4cn(Cc5ccc(-n6sccc6=O)cc5)nn4)nc31)[C@H](O)[C@@H]2O [Compound 19, (1S,2R,3S,4R,5S)-6-(3-Chlorobenzylamino)-(2-(1-(4-3-oxoisothiazol-2(3H)-yl)benzyl-1H-1,2,3-triazol-4-yphex-1-ynyl)-9H-purin-9-yl)-2′,3′-dihydroxybicyclo[3.1.0]hexane-β-carboxylic acid N-methylamide] | –
89.5 ± 12.6 | CNC(=O)[C@@]12C[C@@H]1[C@@H](n1cnc3c(NCc4cccc(Cl)c4)nc(C#CCCCCc4cn(CCCCNC(C)=O)nn4)nc31)[C@H](O)[C@@H]2O [Compound 17, (1S,2R,3S,4R,5S)-6-(3-Chlorobenzylamino)-(2-(6-(1-(4-acetamidobutyl)-1H-1,2,3-triazol-4-yl)hex-1-ynyl)-9H-purin-9-yl)-2′,3′-dihydroxybicyclo[3.1.0]hexane-1′-carboxylic acid N-methylamide] | –
87.1 ± 13.1 | CNC(=O)[C@@]12C[C@@H]1[C@@H](n1cnc3c(NCc4cccc(Cl)c4)nc(C#CCCCCc4cn(-c5ccc(N)cc5)nn4)nc31)[C@H](O)[C@@H]2O [Compound 12, (1S,2R,3S,4R,5S)-4′-(6-(3-Chlorobenzylamino)-2-(6-(1-(4-amino-phenyl)-1H-1,2,3-triazol-4-yl)hex-1-ynyl)-9H-purin-9-yl)-2′,3′-dihydroxybicyclo[3.1.0]hexane-1′-carboxylic acid N-methylamide] | –
22.3 ± 1.6 | CNC(=O)[C@@]12C[C@@H]1[C@@H](n1cnc3c(NCc4cccc(Cl)c4)nc(C#CCCCCc4cn(CCNC(C)=O)nn4)nc31)[C@H](O)[C@@H]2O [Compound 15, (1S,2R,3S,4R,5S)-6-(3-Chlorobenzylamino)-(2-(6-(1-(4-acetamidoethyl)-1H-1,2,3-triazol-4-yl)hex-1-ynyl)-9H-purin-9-yl)-2′,3′-dihydroxybicyclo[3.1.0]hexane-1′-carboxylic acid N-methylamide] | % Inhibition of cAMP accumulation at the hA3AR (human A3AR [2]): 93.6 ± 17.7%
9.6 ± 1.3 | CNC(=O)[C@@]12C[C@@H]1[C@@H](n1cnc3c(NCc4cccc(Cl)c4)nc(C#CCCCCc4cn(-c5ccc(C(=O)CBr)cc5)nn4)nc31)[C@H](O)[C@@H]2O [Compound 14, (1S,2R,3S,4R,5S)-6-(3-Chlorobenzylamino)-4-(2-(6-(4-(2-bromoacetyl)phenyl)-1H-1,2,3-triazol-4-yphex-1-ynyl)-9H-purin-9-yl)-2′,3′-dihydroxybicyclo[3.1.0]hexane-1′-carboxylic acid N-methylamide] | –

Source: patent US8518957B2, “Methanocarba adenosine derivatives, pharmaceutical compositions, and method of reducing intraocular pressure” (The United States of America, as represented by the …, priority 2009, dated 2013)
